In US5552441A, “Leukotriene B4 antagonists” (Eli Lilly and Company, priority 1994, dated 1996):
Where a name gives a salt, the structure may show the parent alone.

Key:
[1] = molecular target: [^3 H]-LTB4 binding to guinea pig lung membranes (Cavia porcellus, UniProt H0VYV8); test: Inhibition of [^3 H]LTB4 Binding to Guinea Pig Lung Membranes; details: approximately 140 pM [^3 H]-LTB4, 45 minutes at 30° C., pH 6.5, mean -log Ki, read-out: Inhibition of [^3 H]LTB4 Binding to Guinea Pig Lung Membranes pKi (converted)
[2] = molecular target: leukotriene B4 specific receptor on the membrane of human neutrophils (Homo sapiens, UniProt Q15722); test: biochemical; details: 0.1-0.2 nM ^3 H-LTB4, 10 minutes at 4° C., read-out: Inhibition of [^3 H]LTB4 Binding to Human Neutrophils IC50
Method: The effectiveness of compounds to inhibit the binding of leukotriene B4 to a specific receptor on the membrane of human neutrophils was measured by using an adaptation of a radio-ligand binding assay developed by Goldman and Goetzl, J. Immunol., 129, 1600 (1982). Other investigators have developed similar assays (see, e.g., Kreisle, et al., J. Exp. Med., 157, 628 (1983) and Lin, et al., Prostaglandins, 28, 837 (1984)).
Cells used in the assay were isolated by standard techniques of centrifugation on Ficoll-Hypaque, dextran 70 sedimentation and hypotonic lysis. The following procedure was used. Freshly-prepared buffy coat layers from two individuals were obtained from a local blood donor center. The cells were mixed and diluted to 484 ml with phosphate buffered saline containing heparin (10 units/ml) and heat-inactivated calf serum (5%). This was divided into 20 ml aliquots and the aliquots layered on top of Ficoll-Paque (12 ml). The material was then centrifuged at 500 g for 40 minutes at room temperature. The resulting upper layer of platelets and mononuclear cells was discarded. The lower layer containing erythrocytes and neutrophils was retained. Buffer was added (1 ml per 4 ml of lower layer) and the suspension mixed. For each milliliter of this mixture, 0.33 ml of 6% Macrodex was added. After stirring the cells were allowed to sediment for 1 hour at 37° C. The resulting erythrocyte pellet was discarded and the neutrophil enriched supernatant fluid centrifuged at 500 g for 10 minutes at 4° C. […] Subsequently, the volume was made up to 50 ml by addition of ice-cold buffer and the cells resuspended. The suspension was then centrifuged at 300 g for 10 minutes at 4° C. […] This buffer consisted of Hanks' balanced salt solution and 0.1% ovalbumin (pH 7.3).
The amount of bound ^3 H-LTB4 was then measured and compared with the amount bound in the absence of test compound. The assay was carried out in microcentrifuge tubes by adding first 10 μl test compound dissolved in DMSO, followed by adding 20 μl ^3 H-LTB4 diluted in assay buffer, and finally adding 500 μl of the cell suspension. At the end of the 10 minutes incubation, 300 μl of a mixture of dibutyl and dinonyl phthalate (7:2) were added and the tubes centrifuged for 2 minutes in a microcentrifuge. The radioactivity bound to the cell pellet was measured by scintillation spectroscopy.

Chain of leukotriene B4 specific receptor on the membrane of human neutrophils (Q15722 whole entry): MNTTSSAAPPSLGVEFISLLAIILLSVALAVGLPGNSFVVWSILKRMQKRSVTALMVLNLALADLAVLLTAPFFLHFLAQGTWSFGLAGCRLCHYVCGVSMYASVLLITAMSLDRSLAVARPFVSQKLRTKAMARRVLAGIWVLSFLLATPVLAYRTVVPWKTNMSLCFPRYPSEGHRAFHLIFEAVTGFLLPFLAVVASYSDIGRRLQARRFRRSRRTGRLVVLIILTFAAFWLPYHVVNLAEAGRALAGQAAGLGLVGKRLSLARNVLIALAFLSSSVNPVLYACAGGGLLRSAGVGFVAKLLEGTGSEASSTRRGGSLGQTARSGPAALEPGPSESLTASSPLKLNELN
Chain of [^3 H]-LTB4 binding to guinea pig lung membranes (H0VYV8 1-348): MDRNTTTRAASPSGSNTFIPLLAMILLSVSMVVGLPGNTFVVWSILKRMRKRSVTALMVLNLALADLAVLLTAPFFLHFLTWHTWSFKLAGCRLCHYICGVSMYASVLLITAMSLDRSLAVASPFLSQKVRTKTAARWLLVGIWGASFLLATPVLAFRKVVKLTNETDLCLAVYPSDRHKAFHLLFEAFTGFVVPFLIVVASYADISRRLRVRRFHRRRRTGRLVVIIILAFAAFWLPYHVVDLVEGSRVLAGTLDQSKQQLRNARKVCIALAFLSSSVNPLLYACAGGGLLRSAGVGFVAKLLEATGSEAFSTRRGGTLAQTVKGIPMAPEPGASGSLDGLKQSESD

SMILES	Ki [1]	IC50 [2]
CCCc1c(OCCCOc2cc(O)c(C(C)=O)cc2CC)ccc2c1OC(C(=O)O)CC2 (centres unmarked) [Example 1, 7-[3-(4-acetyl-2-ethyl-5-hydroxyphenoxy)propoxy]-3,4-dihydro-8-propyl-2H-1-benzopyran-2-carboxylic acid]	8.13 nM	
CCc1cc(C(C)=O)c(O)cc1OCCCOc1ccc2c(=O)c3cc(C(=O)O)ccc3oc2c1 [Example 7, 6-[3-(4-acetyl-2-ethyl-5-hydroxyphenoxy)propoxy]-9-oxo-9H-xanthene-2-carboxylic acid disodium salt sesquihydrate]	741 nM	190 nM
CCc1cc(C(C)=O)c(O)cc1OCCCOc1ccc(Oc2ccc(C(=O)O)cc2)cc1 [sodium salt hydrate]	132 nM	193 nM
CCc1cc(C(C)=O)c(O)cc1OCCCOc1ccc2ccc(OCC(=O)O)cc2c1 [Example 16, [2-[7-[3-(4-Acetyl-2-ethyl-5-hydroxyphenoxy)propoxy]naphthalenyl]oxy]acetic acid sodium salt hydrate]	117 nM	409 nM
CCCc1c(OCCCOc2cc(O)c(C(C)=O)cc2CC)cccc1OCc1ccccc1C(=O)O [Example 17, 2-[[3-[3-(4-acetyl-2-ethyl-5-hydroxyphenoxy)propoxy]-2-propylphenoxy]methyl]benzoic acid disodium salt hemihydrate]	170 nM	127 nM
CCCc1c(OCCCOc2cc(O)c(C(C)=O)cc2CC)cccc1OC(CC)C(=O)O (centres unmarked) [Example 5, 2-[3-[3-(4-acetyl-2-ethyl-5-hydroxyphenoxy)propoxy)-2-propylphenoxy]butanoic acid]	13.8 nM	
CCc1cc(C(C)=O)c(O)cc1OCCCOc1cccc(Oc2ccccc2C(=O)O)c1 [Example 13, 2-[3-[3-(4-acetyl-2-ethyl-5-hydroxyphenoxy)propoxy]phenoxy]benzoic acid disodium salt hemihydrate]	182 nM	291 nM
CCCc1cc(Oc2cccc(C(=O)O)c2)ccc1OCCCOc1cc(O)c(C(C)=O)cc1CC [Example 9, 3-[3-propyl-4-[3-(4-acetyl-2-ethyl-5-hydroxyphenoxy)propoxy]phenoxy]benzoic acid disodium salt]	257 nM	158 nM
CCCc1c(OCCCCOc2cc(O)c(C(C)=O)cc2CC)cccc1Oc1ccccc1C(=O)O [Example 18, 2-[3-[4-(4-Acetyl-2-ethyl-5-hydroxyphenoxy)butoxy]-2-propyl-phenoxy]benzoic acid disodium salt]	53.7 nM	94 nM
CCc1cc(C(C)=O)c(O)cc1OCCCOc1cccc(Oc2cccc(C(=O)O)c2)c1 [Example 14, 3-[3-[3-(4-acetyl-2-ethyl-5-hydroxyphenoxy)propoxy]phenoxy]benzoic acid disodium salt hemihydrate]	174 nM	456 nM
CCc1cc(C(C)=O)c(O)cc1OCCCOc1ccc2c(=O)c3cc(C(=O)O)ccc3oc2c1CCC(=O)O [Example 15, 3-[4-[7-carboxy-3-[3-(4-acetyl-2-ethyl-5-hydroxyphenoxy)propoxy]-9-oxo-9H-xanthene]]propanoic acid trisodium salt trihydrate]	0.977 nM	
CCCc1c(OCCCOc2cc(O)c(C(C)=O)cc2CC)c(I)cc2c1OC(C(=O)O)CC2 (centres unmarked) [Example 6, 6-iodo-8-propyl-7-[3-[4-acetyl-2-ethyl-5-hydroxyphenoxy)propoxy]-3,4-dihydro-2H-1-benzopyran-2-caroxylic acid]	25.7 nM	327 nM
CCCc1cc(Oc2ccc(C(=O)O)cc2)ccc1OCCCOc1cc(O)c(C(C)=O)cc1CC [sodium salt hydrate]	1000 nM	326 nM

Next, values leading:

Ki [1]	IC50 [2]	SMILES
4.79 nM	67 nM	CCCc1c(OCCCOc2cc(O)c(C(C)=O)cc2CC)cccc1OCC(=O)O [Example 3, 2-[2-propyl-3-[[3-(4-acetyl-2-ethyl-5-hydroxyphenoxy)proyl]oxy]phenoxy]acetic acid]
28.2 nM	115 nM	CCc1cc(C(C)=O)c(O)cc1OCCCOc1ccc(-c2ccccc2)cc1CCC(=O)O [Example 11, 3-[1-[5-phenyl-2-[3-(4-acetyl-2-ethyl-5-hydroxyphenoxy)propoxy]phenyl]]propanoic acid disodium salt]
2.04 nM	43 nM	CCc1cc(C(C)=O)c(O)cc1OCCCOc1ccc2oc3ccccc3c2c1CCC(=O)O [Example 8, 3-[1-[2-[3-(4-acetyl-2-ethyl-5-hydroxyphenoxy)propoxy]dibenzofuran]]propanoic acid disodium salt]
34.7 nM	24 nM	CCCc1c(OCCCOc2cc(O)c(C(C)=O)cc2CC)cccc1Oc1ccccc1C(=O)O [Example 19, 2-[3-[3-(4-Acetyl-2-ethyl-5-hydroxyphenoxy)propoxy]-2-propylphenoxy]benzoic acid disodium salt hydrate]
6.61 nM	46 nM	CCc1cc(C(C)=O)c(O)cc1OCCCOc1ccc(C(=O)c2cccc(C(=O)O)c2)cc1CCC(=O)O [Example 20, 3-[1-[2-[3-(4-acetyl-2-ethyl-5-hydroxyphenoxy)propoxy]-5-(3-carboxybenzoyl)phenyl]]propanoic acid trisodium salt hydrate]
15.1 nM	23 nM	CCCc1c(OCCCOc2cc(O)c(C(C)=O)cc2CC)cccc1OC(C)C(=O)O (centres unmarked) [Example 4, 2-[3-[3-(4-acetyl-2-ethyl-5-hydroxyphenoxy)propoxy)-2-propylphenoxy]propanoic acid]
